System: db/db mice
Assay: Blood glucose lowering in db/db mice (Example 12)
Type: in vivo
Details: db/db male mice, 35 nmol/kg subcutaneous single dose, 0-10 hours, AUC, vs PBS control; FIG. 9
Method: The feeding conditions of db/db mice were the same as described in Example 7. The db/db male mice (GemPharmatech, 7 weeks old) had one-week to acclimate to the environmental conditions of the test facility. Three days before the test (−3 day˜−1 day) baseline blood glucose and body weight were recorded. The mice were randomly grouped based on three-day blood glucose and body weight, with 6 mice in each group. Mice were injected subcutaneously with PBS (5 ml/kg, control group) or peptide compounds 42, 115, 178 (35 nmol/kg) at 10:00 in the morning. Blood was collected at 0 hour before drug administration, and 1.5, 4, 7, and 10 hours after administration, and blood glucose was measured using a OneTouch glucose meter (Johnson & Johnson) and test strips. By using time as the abscissa and the blood glucose value at different time points as the ordinate blood glucose curves were drawn, and the areas under the curve (AUC) were calculated to compare the hypoglycemic effects and duration of action of the peptide compounds.

Substance | blood glucose
Y(aib)EGTFTSDLSI(aib)LEKEAVRLFIEWLLAG-NH2 (YXEGTFTSDLSIXLEKEAVRLFIEWLLAG; Aib; C-terminal amide; MOD_RES (2)..(2) X=aminoisobutyric aicd; MOD_RES (13)..(13) X=aminoisobutyric aicd; MOD_RES (29)..(29) AMIDATION, C-termianl amidation) [Compound 42] | significantly reduced blood glucose
Y(aib)EGTFTSDLSI(aib)LEKEAVRLFIEWLLAGGPS-NH2 (YXEGTFTSDLSIXLEKEAVRLFIEWLLAGGPS; Aib; C-terminal amide; MOD_RES (2)..(2) X=aminoisobutyric aicd; MOD_RES (13)..(13) X=aminoisobutyric aicd; MOD_RES (32)..(32) AMIDATION, C-termianl amidation) [Compound 178] | significantly reduced blood glucose
Y(aib)EGTFTSDLSI(aib)LEKEAVRLFIEWLLAGGPSSGA-NH2 (YXEGTFTSDLSIXLEKEAVRLFIEWLLAGGPSSGA; Aib; C-terminal amide; MOD_RES (2)..(2) X=aminoisobutyric aicd; MOD_RES (13)..(13) X=aminoisobutyric aicd; MOD_RES (35)..(35) AMIDATION, C-termianl amidation) [Compound 115] | significantly reduced blood glucose

Reference: US12612441B2, “Polypeptide and therapeutic uses thereof” (Vitalixir (Beijing) Co., Ltd, priority 2019, dated 2026)
